What is called IC50 is the concentration at which inhibition is half-maximal.

The text below walks through data of ChEMBL document CHEMBL6083245, “Digoxin and its Na+/K+-ATPase-targeted actions on cardiovascular diseases and cancer” (Bioorg Med Chem, 2024).

What all share (assay type): functional, cell-based
In assay [1] the test system is NCI-H82. The experiment in a line: Antiproliferative activity against human NCI-H82 cells assessed as reduction in cell viability incubated for 48 hrs by Cell-titer Glo luminescent assay. The following applies: NCI-H82, 48 h.
Assay [2] concerns MDA-MB-231. Put plainly: Cytotoxicity against human MDA-MB-231 cells assessed as reduction in cell growth incubated for 72 hrs by MTT assay. To be noted: MDA-MB-231, 72 h.
The test system of assay [3] is A549. Put plainly: Antiproliferative activity against human A549 cells assessed as reduction in cell viability incubated for 48 hrs by Cell-titer Glo luminescent assay. To be noted: A549, 48 h.
Assay [4] concerns SW-620. Put plainly: Cytotoxicity against human SW620 cells assessed as reduction in cell growth incubated for 72 hrs by MTT assay. The following applies: SW-620, 72 h.
Assay [5] relates to HT-29. The experiment in a line: Cytotoxicity against human HT-29 cells assessed as reduction in cell growth incubated for 72 hrs by MTT assay. The following applies: HT-29, 72 h. Background: Tetrazolium assays rely on reduction of a dye to a coloured formazan, in cell work by metabolically active cells.
Assay [6] has as its system MDA-MB-435. Put plainly: Cytotoxicity against human MDA-MB-435 cells assessed as reduction in cell growth incubated for 72 hrs by MTT assay. The following applies: MDA-MB-435, 72 h.
Assay [7] deals with OVCAR-3. Put plainly: Cytotoxicity against human OVCAR-3 cells assessed as reduction in cell growth incubated for 72 hrs by MTT assay. The following applies: OVCAR-3, 72 h.
The nature of assay [8]: Antiproliferative activity against human NSCLC cells assessed as reduction in cell viability incubated for 48 hrs by Cell-titer Glo luminescent assay.
For assay [9], the system named is NCI-H1299. The experiment in a line: Antiproliferative activity against human NCI-H1299 cells assessed as reduction in cell viability incubated for 48 hrs by Cell-titer Glo luminescent assay. The following applies: NCI-H1299, 48 h.
The nature of assay [10]: Antiproliferative activity against human NCI-H196 cells assessed as reduction in cell viability incubated for 48 hrs by Cell-titer Glo luminescent assay. To be noted: NCI-H196, 48 h.
The test system of assay [11] is HCT-8. Put plainly: Cytotoxicity against human HCT-8 cells assessed as reduction in cell growth incubated for 72 hrs by MTT assay. The following applies: HCT-8, 72 h.
Assay [12] relates to NCI-H1963. The experiment in a line: Antiproliferative activity against human NCI-H1963 cells assessed as reduction in cell viability incubated for 48 hrs by Cell-titer Glo luminescent assay. The following applies: NCI-H1963, 48 h.
Assay [13] concerns NCI-H69. The experiment in a line: Antiproliferative activity against human NCI-H69 cells assessed as reduction in cell viability incubated for 48 hrs by Cell-titer Glo luminescent assay. The following applies: NCI-H69, 48 h.
Assay [14] deals with HeLa. The experiment in a line: Antiproliferative activity against human HeLa cells assessed as reduction in cell viability by MTS assay.
The subject of assay [15] is NCI-H526. The experiment in a line: Antiproliferative activity against human NCI-H526 cells assessed as reduction in cell viability incubated for 48 hrs by Cell-titer Glo luminescent assay. To be noted: NCI-H526, 48 h.

Consider `C[C@H]1O[C@@H](O[C@H]2[C@@H](O)C[C@H](O[C@H]3[C@@H](O)C[C@H](O[C@H]4CC[C@@]5(C)[C@H](CC[C@@H]6[C@@H]5C[C@@H](O)[C@]5(C)[C@@H](C7=CC(=O)OC7)CC[C@]65O)C4)O[C@@H]3C)O[C@@H]2C)C[C@H](O)[C@@H]1O` [DIGOXIN], for which the IC50 worked out at 50 nM in assay [1]; 100 nM in [2]; 50 nM in assay [3]; 100 nM in assay [4]; 100 nM in [5]; 100 nM in [6]. The IC50 in [7] was found to be 100 nM; in [8] it was 50 nM; in assay [9], 50 nM; in [10] it was 50 nM; in [11] it was 100 nM; in assay [12], 50 nM. The IC50 was 50 nM in [13], 0.2 nM in assay [14] and 50 nM in assay [15].
